Measured values from patent US11446299B2, “Carbazole EHop-016 derivatives as anticancer and anti-migratory agents” (UNIVERSITY OF PUERTO RICO, priority 2017, dated 2022).
Like-named read-outs stand apart in the source and are kept apart here.

Key:
[1] = test system: MCF-7 cancer cells; assay: Sulforhodamine B (SRB) growth inhibition assay; format: cell-based; details: Homo sapiens, MCF7, 24 h treatment, mean of triplicate, SD <10%
Protocol: (§1) Various compounds were tested to evaluate the dose response curve for effect on MCF-7 cancer cells and MDA-MB-231 cancer cells. MCF-7 and MDA-MB-231 cells were cultured in 10% Minimum Essential Medium Eagle (MEME) supplemented with Earle's Balanced Salt Solution (EBSS), Non-essential Amino acids (NEAA), Sodium pyruvate, Pen/Strep, L-glutamine and Fetal Bovine Serum (FBS) at 37° C. in 5% CO2.
(§2) Sulforhodamine B (SRB) Assay: A stock solution of compounds was prepared at 50 mM in 100% DMSO. For cells preparation, a flask of 75 cm^2 or 25 cm^2 were used for 2.6×10^5 cells or 1.44×10^5 cells respectively with an 80-90% of confluence. Cells were washed with PBS and trypsinized. The concentration of cells was determined using a 1:2 dilutions with Trypan Blue and a hemocytometer. After cell count, the concentration was adjusted to have a 1.9×10^4 cells/well. Approximately […] of cells suspension, compounds, control positive and control negative were added in triplicates to a 96 well plate. Positive controls used were ellipticine, doxorubicin, and/or vincristine, and the negative control was DMSO 0.1%. All compounds at 50, 25, 12.5, 6.3, and 1.6 μM were incubated with cells at 37° C. for 24 hrs. For fixation, cold TCA 50% was used and incubated at 4° C. for 1 hr. Wells were washed and dried prior to tincture with 100 μL of SRB 0.4%. To remove excess of SRB, acetic acid was used. For analysis, TRIS-BASE Solution (pH=10.5) was used and shacked prior to reading using an ELISA reader at 510 nm and the software SoftMax Pro 4.8.
(§3) For each compound, 50% growth inhibition (GI50) was calculated from Sigmoidal dose-response curves (variable-slope) that were generated with data obtained from experiments carried out in triplicates (GI50 values were generated with GraphPad Prism V. 6.02, GraphPad Software, Inc.). The results are presented in FIGS. 4A-4B (MCF-7 cancer cells) and FIGS. 5A-5B (MDA-MB-231 cancer cells).

[2] = test system: MDA-MB-231 cancer cells; assay: Sulforhodamine B (SRB) growth inhibition assay; format: cell-based, human; details: for GI50: Homo sapiens, MDA-MB-231, SRB assay, 24 h treatment, mean of triplicate, SD <10%; for anti-proliferative activity / cytotoxicity in words: MDA-MB-231, concentrations ≤50 μM
Protocol: as §1, §2, §3

[3] = test system: MDA-MB-231 breast cancer cells; assay: Wound healing assay (scratch method), cell migration; format: cell-based, human; details: Homo sapiens, MDA-MB-231; for activity at 10 µM: percent relative migration at 10 μM after 24 h, relative to control; for inhibition at 10 µM: read-out: anti-migratory activity (inhibition of migration)
Protocol: The experimental data of anti-migratory activities for compounds 3a-d and 4a-f were obtained using MDA-MB-231 breast cancer cells. For the migration assay, a wound-healing assay (scratch-wound assay) was utilized in the presence of vehicle (0.02% DMSO) or compounds at […].
Prior to assays, cells were grown until 80-90% confluence was observed. A 75 cm2 flask was used for 2.6×10^5 cells/mL in 10 mL and for a 25 cm2 flask 1.44×10^5 cells/mL in 5 mL. The cells were washed with PBS to remove all traces of FBS. 2 mL was added for a 25 cm2 flasks or 4 mL for a 75 cm2 flasks trypsin, and incubated 5-10 min at 37° C. At the end of the incubation time, cells were re-suspended and counted with hemocytometer using 1:2 dilutions with Trypan blue. Subsequently, cell viability was calculated. In a 12 multiwell plate, the plastic pattern was used to draw a fine space with a fine marker on the bottom of the plate. Cells were seeded at 1.5-2.2×10^5 cells/mL in 1 mL and incubated for 24 h. Cells were then rinsed with PBS and incubated in starving media (0.5% FBS) overnight. All controls and drugs were tested in triplicate. The negative control for each drug was prepared according to the drug's DMSO concentration.
Drugs were diluted and the final concentration at each well […]. The wound was made using a sterile pipette tip of […]. Cells were then rinsed very gently with media without FBS and media with negative controls was added. After a 24 h incubation, the gap distance was evaluated using the software Lumera Infinity Analyze 6.4.0. Pictures were taken at 0, 8, 12 and 24 h using a 10× objective. The percentage of migration was calculated using the following formula: 100−[(X0/X0)]*100 for time 0 h measurements 100−[(X24/X0)]*100 for time 24 h measurements
The experimental data of anti-migratory activities for compounds 3a-d and 4a-f were obtained using MDA-MB-231 breast cancer cells, and results are summarized in Table 1. For the migration assay, we used a wound-healing assay (scratch-wound assay)^22 in the presence of vehicle (0.02% DMSO) or compounds at 10 μM (FIG. 6). […] However, compounds 3a, 3c, and 4a-f inhibited migration in the range of 1-9%.
An additional example of a compounds with modification in building block C was synthesized via a different procedure as represented in Scheme 2B (see FIG. 11B). The compounds that were synthesized were tested for their biological activity by determination of their cytotoxicity in MDA-MB-231 breast cancer cell lines as shown in Table 5. The cytotoxicity's are expressed as IC50, which indicates the concentration at which 50% of the cell growth is inhibited. Furthermore, the inhibition of cell migration was tested at a concentration of 0.2×IC50, or, when the IC50 was >50 μM at a concentration of 10 μM. For comparison, Table 5 also includes the Lipinski and drug-likeness parameters as calculated via the MolSoft platform.
Migration assays were performed via the Scratch Method as described previously.

| GI50 [1] [µM] | GI50 [2] [µM] | Structure (SMILES) | activity at 10 µM [3] [%] | anti-proliferative activity / cytotoxicity in words [2] | anti-proliferative activity in words ([2]; MDA-MB-231 at <50 pM as printed) | inhibition at 10 µM [3] [%] | inhibition at 10 µM ([3]; at 10 μM, 24 h) [%] |
| --- | --- | --- | --- | --- | --- | --- | --- |
| > 50 | > 50 | CCn1c2ccccc2c2cc(NC(=O)c3cccnc3N3CCN(C(C)=O)CC3)ccc21 [Compound 3a, 2-(4-acetylpiperazin-1-yl)-N-(9-ethyl-9H-carbazol-3-yl)nicotinamide] | 93 ± 11.7 |  |  |  |  |
| > 50 | > 50 | CCn1c2ccccc2c2cc(NC(=O)c3cccnc3N3CCOCC3)ccc21 [Compound 3b, N-(9-ethyl-9H-carbazol-3-yl)-2-morpholinonicotinamide] | 68 ± 10.5 | no anti-proliferative activity | minor anti-proliferative activity | 32 | 32 |
| > 50 | > 50 | CCn1c2ccccc2c2cc(NC(=O)c3cccnc3N3CCN(c4ccccc4)CC3)ccc21 [Compound 3c, N-(9-ethyl-9H-carbazol-3-yl)-2-(4-phenylpiperazin-1-yl)nicotinamide] | 99 ± 1.89 |  |  |  |  |
| > 50 | 19 | CCn1c2ccccc2c2cc(NC(=O)c3cccnc3NCCCN3CCOCC3)ccc21 [Compound 3d] | 76 ± 7.87 |  |  | 24 | 24 |
| 28 | > 50 | CCn1c2ccccc2c2cc(Nc3ncccc3C(=O)NCCCN3CCOCC3)ccc21 [Compound 4a, 2-(9-ethyl-9H-carbazol-3-ylamino)-N-(3-norpholinopropyl)nicotinamide] | 99 ± 1.28 |  |  |  |  |
| > 50 | > 50 | CCn1c2ccccc2c2cc(Nc3ncccc3C(=O)NCCN3CCN(C(=O)OC(C)(C)C)CC3)ccc21 [Compound 4b] | 95 ± 9.8 |  |  |  |  |
| 27 | > 50 | CCn1c2ccccc2c2cc(Nc3ncccc3C(=O)NCCCn3ccnc3)ccc21 [Compound 4c, N-(3-(1H-imidazol-1-yl)propyl)-2-((9-ethyl-9H-carbazol-3-yl)amino)nicotinamide] | 93 ± 2.01 |  |  |  |  |
| 13 | 18 | CCN(CC)CCCC(C)NC(=O)c1cccnc1Nc1ccc2c(c1)c1ccccc1n2CC (stereo not shown) [Compound 4d, N-(4-Diethylamino-1-methyl-butyl)-2-(9-ethyl-9H-carbazol-3-ylamino)-nicotinamide] | 91 ± 14.1 |  |  |  |  |
| 14 | 18 | CCN(CC)CCNC(=O)c1cccnc1Nc1ccc2c(c1)c1ccccc1n2CC [Compound 4e, N-(2-(diethylamino)ethyl)-2-((9-ethyl-9H-carbazol-3-yl)amino)nicotinamide] | 99 ± 4.12 |  |  |  |  |
| > 50 | > 50 | CCn1c2ccccc2c2cc(Nc3ncccc3C(=O)Nc3cc(OC)c(OC)c(OC)c3)ccc21 [Compound 4f, 2-((9-ethyl-9H-carbazol-3-yl)amino)-N-(3,4,5-trimethoxyphenyl)nicotinamide] | 92 ± 8.55 |  |  |  |  |
| 15 | 23 | CCn1c2ccccc2c2cc(Nc3ncccc3NC(=O)CCN3CCCCC3)ccc21 [Compound 7a, N-[2-(9-Ethyl-9H-carbazol-3-ylamino)-pyridin-3-yl]-3-piperidin-1-yl-propionamide] | 99 ± 4.29 |  |  |  |  |
| 41 | 31 | CCn1c2ccccc2c2cc(Nc3ncccc3NC(=O)c3cccnc3)ccc21 [Compound 7b, N-(2-((9-ethyl-9H-carbazol-3-yl)amino)pyridin-3-yl)nicotinamide] | 81 ± 11.1 |  |  |  |  |
| 23 | > 50 | CCn1c2ccccc2c2cc(Nc3ncccc3NCC(=O)N3CCOCC3)ccc21 [Compound 7c] | 81 ± 8.27 | minimal cytotoxicity |  |  |  |
| 32 | 39 | CCn1c2ccccc2c2cc(C(=O)Nc3cccnc3NCCCN3CCOCC3)ccc21 [Compound 11a, 9-Ethyl-9H-carbazole-3-carboxylic Acid [2-(3-morpholin-4-yl-propylamino)-pyridin-3-yl]-amide] | 89 ± 10.1 |  |  |  |  |
| > 50 | > 50 | CCn1c2ccccc2c2cc(NC(=O)c3nccnc3C(=O)NCCN3CCOCC3)ccc21 [Compound 14a, N^2-(9-ethyl-9H-carbazol-3-yl)-N^3-(2morpholinoethyl)pyrazine-2,3-dicarboxamide] | 91 ± 5.23 |  |  |  |  |
| > 50 | > 50 | CCn1c2ccccc2c2cc(NC(=O)c3nccnc3C(=O)NCCCN3CCOCC3)ccc21 [Compound 14b, N^2-(9-ethyl-9H-carbazol-3-yl)-N^3-(3-morpholinopropyl)pyrazine-2,3-dicarboxamide] | 94 ± 5.87 |  |  |  |  |
| > 50 | > 50 | CCn1c2ccccc2c2cc(NC(=O)c3nccnc3C(=O)NCCCn3ccnc3)ccc21 [Compound 14c, Pyrazine-2,3-dicarboxylic acid 2-[(9-ethyl-9H-carbazol-3-yl)-amide]-3-[(3-imidazol-1-yl-propyl)-amide]] | 99 ± 4.5 |  |  |  |  |
| > 50 | > 50 | CCn1c2ccccc2c2cc(NC(=O)c3nccnc3C(=O)NCCOC)ccc21 [Compound 14d, N^2-(9-ethyl-9H-carbazol-3-yl)-N^3-(2-methoxyethyl)pyrazine-2,3-dicarboxamide] | 100 ± 5.2 |  |  |  |  |
| > 50 | > 50 | CCn1c2ccccc2c2cc(NC(=O)c3ccccc3C(=O)NCCOC)ccc21 [Compound 14e, N^1-(9-ethyl-9H-carbazol-3-yl)-N^2-(2-methoxyethyl)phthalamide] | 99 ± 2.57 |  |  |  |  |
| > 50 | > 50 | CCn1c2ccccc2c2cc(NC(=O)c3ccccc3C(=O)NCCO)ccc21 [Compound 14f, N^1-(9-ethyl-9H-carbazol-3-yl)-N^2-(2-hydroxyethyl)phthalamide] | 98 ± 1.83 |  |  |  |  |
| > 50 | > 50 | CCn1c2ccccc2c2cc(NC(=O)C3CCCCC3C(=O)NCCN3CCOCC3)ccc21 (stereo not shown) [Compound 14g] | 99 ± 1.63 |  |  |  |  |
| > 50 | > 50 | CCn1c2ccccc2c2cc(NC(=O)C3CCCCC3C(=O)NCCCN3CCOCC3)ccc21 (stereo not shown) [Compound 14h, cyclohexane-1,2-dicarboxylic acid 1-[(9-ethyl-9H-carbazol-3-yl)-amide]-2-[(3-morpholin-4-yl-propyl)-amide]] | 100 ± 0.56 |  |  |  |  |
